This passage reports IC50 results from US10287292B2, “CXCR7 antagonists” (CHEMOCENTRYX, INC., priority 2012, dated 2019).

In test [1] the target is T1, CXCR7 receptor (Homo sapiens (Human), UniProt P25106). The experiment in a line: Buffer Binding Analysis: displacement of 125I-labeled SDF-1 from CXCR7. As to conditions: 125I SDF-1 displacement, buffer binding medium, MCF-7 and/or MDA-MB-435S CXCR7 transfected cells, 3 hr at 4° C.; read-out: Avg Bind IC50. Here is the method:
(§1) The compounds were combined with cells expressing the CXCR7 receptor (e.g., MCF cells or cells transfected to express CXCR7) in the presence of the 125 I-labeled SDF-1 chemokine as detailed in Determination of IC50 values. Reagents and Cells (see below). The ability of the compounds to displace the labeled chemokine from the CXCR7 receptor sites at multiple concentrations was then determined with the screening process.
Compounds that were deemed effective modulators were able to displace at least 50% of the SDF-1 from the CXCR7 receptor at concentrations at or below 15 micromolar (μM) but >2500 nM (+); and more preferably at concentrations from >500 nM to ≤2500 nM (++). At present, especially preferred compounds can displace at least 50% of the SDF-1 from the CXCR7 receptor at concentrations at or below 500 nM (+++). Exemplary compounds that met these criteria are reproduced in Table 1 and the Examples above. In Table 1, Avg Bind IC50 refers to the Buffer Binding Analysis described below, while Avg Ser IC50 refers to the Serum Binding Analysis described below. All compounds were prepared as described in the Examples above, or by related methods substituting readily available starting materials.
(§2) ^125I-labeled SDF-1 was purchased from Perkin-Elmer Life Sciences, Inc. (Boston, Mass.). The MCF-7 (adenocarcinoma; mammary gland) cell line was obtained from the American Type Culture Collection (ATCC, Manassas, Va.) or and was cultured in DMEM (Mediatech, Herndon, Va.) supplemented with 10% fetal bovine serum (FBS) (HyClone Logan, Utah) and bovine insulin (0.01 mg/mL) (Sigma. St. Louis, Mo.) at 37° C. in a humidified incubator at a 5% CO2/air mixture. CXCR7 transfected MDA-MB-435S were produced as described below. MDA-MB-435S human breast cancer line, was purchased from ATCC, and cultured in DMEM/10% FBS medium. The complete coding sequence of the gene encoding CXCR7 (a.k.a. CCXCKR2, hRDC1), was isolated from MCF-7 cells using μMACs mRNA isolation kit (Miltenyi Biotec, Auburn, Calif.). DNA contamination was removed by DNase digestion via RNeasy columns (Qiagen, Inc., Valencia, Calif.) and cDNA was generated using GeneAmp RNA PCR Core Kit (Applied Biosystems, Foster City. Calif.). PCR of cDNA samples was performed using Taq PCR Master Mix kit (Qiagen. Inc.) and hRDC1 primers harboring 5′ and 3′ Not I sites (hRDC1F 5′ […]-3, hRDC1R 5′-[…]-3′) Not I digested PCR product was ligated into Not I digested pcDNA3.1(+)(Invitrogen, Carlsbad, Calif.) and screened for orientation and sequence confirmed. Plasmid DNA was then isolated from overnight bacterial cultures by Maxiprep (Qiagen, Inc.). Plasmid DNA (10 μg) was added to MDA-MB-435s cells and cells were electroporated (0.22 kV, 960 uF) via Gene Pulser (Biorad laboratories, Hercules, Calif.). 48 hr post-electroporation, cells were transferred to selection medium (600 ug/ml G418).
(§3) Target compounds can be tested to determine their ability to bind with CXCR7 sites on MCF-7 and/or MDA-MB-435S CXCR7 transfected cells. Efficiency-maxim/zed radioligand binding using filtration protocols as described in Dairaghi D J, et al., HHV8-encoded vMIP-I selectively engages chemokine receptor CCR5. Agonist and antagonist profiles of viral chemokines., J. Biol. Chem. 1999 Jul. 30; 274(31): 21569-74 and Gosling J. et al., Cutting edge: identification of a novel chemokine receptor that binds dendritic cell-and T cell-active chemokines including ELC. SLC, and TECK., J. Immunol. 2000 Mar. 15; 164(6):2851-6 was used.
In these assays, MCF-7 and/or MDA-MB-435S cells are interrogated with the target compounds and the ability of these compounds to displace ^125I radiolabeled SDF-1 assessed using the protocol described in Dairaghi and Gosling. […]

Test [2] deals with T1, CXCR7 receptor. The test can be described thus: Serum Binding Analysis: displacement of 125I-labeled SDF-1 from CXCR7 in 100% human serum. As to conditions: 125I SDF-1 displacement in 100% human serum, MCF-7 and/or MDA-MB-435S CXCR7 transfected cells, 3 hrs at 4° C.; read-out: Avg Ser IC50. As for the experimental part:
as §1
In Table 1, Avg Bind IC50 refers to the Buffer Binding Analysis described below, while Avg Ser IC50 refers to the Serum Binding Analysis described below. All compounds were prepared as described in the Examples above, or by related methods substituting readily available starting materials.
as §2
as §3, with “In order to more properly assess the binding efficacy of the compounds, radioligand binding assays were carried out in the presence of 100% human serum to more accurately reflect the in vivo environment. […] Target” for “Target”, “compounds were” for “compounds can be”, “Gosling J,” for “Gosling J.”, “dendritic cell- and” for “dendritic cell-and”, “including ELC,” for “including ELC.”, “and TECK,” for “and TECK.,”
In these assays, MCF-7 and/or MDA-MB-435S cells were interrogated with the target compounds and the ability of these compounds to displace 125 I radiolabeled SDF-1 was assessed using the protocol described in Dairaghi and Gosling. The target compounds were added to the plate to the indicated concentration followed by addition of cells and radiolabeled chemokine (125I SDF-1), both in the following medium (human AB serum with 10 mM HEPES added to stabilize at pH 7.4). All assays were then incubated for 3 hrs at 4° C. with gentle agitation.
In general terms: Displacement assays read how much labelled ligand stays bound in the presence of the test substance.

T1 sequence (P25106 whole entry): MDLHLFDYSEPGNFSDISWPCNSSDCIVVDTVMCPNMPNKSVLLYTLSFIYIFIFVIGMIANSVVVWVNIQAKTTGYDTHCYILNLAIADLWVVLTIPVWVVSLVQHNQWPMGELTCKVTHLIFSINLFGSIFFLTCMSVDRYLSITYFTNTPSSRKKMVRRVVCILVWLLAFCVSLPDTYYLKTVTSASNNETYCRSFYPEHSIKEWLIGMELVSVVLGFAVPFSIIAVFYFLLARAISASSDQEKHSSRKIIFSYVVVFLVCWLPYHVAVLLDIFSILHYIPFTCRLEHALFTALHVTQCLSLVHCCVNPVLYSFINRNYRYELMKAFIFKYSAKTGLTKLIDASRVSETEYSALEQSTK

A word on the IC50: it is the concentration needed to halve the response being measured. In the case of `Cc1ccccc1-n1ccc(C(=O)N[C@H]2CCN(c3nccn4ccc(C)c34)C2)n1` [Compound 1.109], the values for the IC50 at CXCR7 receptor [1] and at CXCR7 receptor [2] were at most 500 nM and 500 to 2500 nM, respectively.

For the compound `O=C(N[C@H]1CCN(c2nccn3cnnc23)C1)c1ncn(-c2ccc(F)cc2)n1` [Compound 1.089], the IC50 at CXCR7 receptor [1] and at CXCR7 receptor [2] was at most 500 nM throughout.

On to `O=C(N[C@H]1CCN(c2nccn3cccc23)C1)c1ncc(-c2ccc(F)cc2)cn1` [Compound 1.076], for which the IC50 on CXCR7 receptor [1] and at CXCR7 receptor [2] was at most 500 nM each time.

With `Cc1ccccc1-n1cnc(C(=O)N[C@H]2CCN(c3nccn4cccc34)C2)n1` [Compound 1.118], the IC50 on CXCR7 receptor [1] and at CXCR7 receptor [2] was at most 500 nM throughout.

As to `O=C(N[C@H]1CCN(c2nccn3cnnc23)C1)c1ccn(C2CCOCC2)n1` [Compound 1.087], the IC50 is 2500 to 15000 nM on CXCR7 receptor [1] and 500 to 2500 nM on CXCR7 receptor [2].

Consider `O=C(N[C@H]1CCN(c2nccn3cccc23)C1)c1noc(-c2ccccc2)n1` [Compound 1.120], for which the IC50 on CXCR7 receptor [1] and on CXCR7 receptor [2] was at most 500 nM each time.

As to `O=C(N[C@H]1CCN(c2nccn3ccnc23)C1)c1ccn(-c2ccc(F)cc2)n1` [Compound 1.092], the 50% inhibitory concentration (IC50) on CXCR7 receptor [1] and at CXCR7 receptor [2] was at most 500 nM throughout.

For `O=C(N[C@H]1CCN(c2nccn3cccc23)C1)c1coc(-c2ccc(F)cc2)n1` [Compound 1.095], the half-inhibitory concentration (IC50) at CXCR7 receptor [1] and at CXCR7 receptor [2] was at most 500 nM in each case.

Take `Cc1cc(Cl)ccc1-n1ccc(C(=O)N[C@H]2CCN(c3nccn4ccc(C)c34)C2)n1` [Compound 1.103]: the figures for the IC50 at CXCR7 receptor [1] and on CXCR7 receptor [2] were at most 500 nM and 500 to 2500 nM, respectively.

Consider `O=C(N[C@H]1CCN(c2nccn3cccc23)C1)c1ccn(-c2ccc(Cl)cc2)n1` [Compound 1.129], for which the IC50 on CXCR7 receptor [1] and on CXCR7 receptor [2] was at most 500 nM throughout.

Take `O=C(N[C@H]1CCN(c2nccn3cnnc23)C1)c1ncn(-c2ccccc2)n1` [Compound 1.127]: the IC50 on CXCR7 receptor [1] and on CXCR7 receptor [2] was at most 500 nM each time.

Regarding `O=C(N[C@H]1CCN(c2nccn3ccnc23)C1)c1cnc(N2CCC(O)CC2)cn1` [Compound 1.075], the IC50 on CXCR7 receptor [1] is 500 to 2500 nM; on CXCR7 receptor [2], 2500 to 15000 nM.

On to `Cc1ccn2ccnc(N3CC[C@H](NC(=O)c4csc(-c5ccc(F)cc5)n4)C3)c12` [Compound 1.108], for which the results for the IC50 at CXCR7 receptor [1] and at CXCR7 receptor [2] were at most 500 nM and 500 to 2500 nM, respectively.

Consider `O=C(N[C@H]1CCN(c2nccn3cccc23)C1)c1ccn(-c2cccc(F)c2)n1` [Compound 1.113], for which the IC50 at CXCR7 receptor [1] and at CXCR7 receptor [2] was at most 500 nM in each case.

On to `Cc1ccn2ccnc(N3CC[C@H](NC(=O)c4csc(-c5ccccc5)n4)C3)c12` [Compound 1.105], for which the IC50 at CXCR7 receptor [1] was at most 500 nM; on CXCR7 receptor [2] it was 500 to 2500 nM.

As to `Cc1ccn2ccnc(N3CC[C@H](NC(=O)c4ncn(-c5ccccc5)n4)C3)c12` [Compound 1.117], the IC50 at CXCR7 receptor [1] and at CXCR7 receptor [2] was at most 500 nM in each case.

As to `Cc1ccc2nc(C(=O)N[C@H]3CCN(c4nccn5cccc45)C3)ncc2c1` [Compound 1.085], the IC50 at CXCR7 receptor [1] and on CXCR7 receptor [2] was at most 500 nM throughout.

As for `O=C(N[C@H]1CCN(c2nccn3cccc23)C1)c1noc(C2CCOCC2)n1` [Compound 1.082], the IC50 was at most 500 nM at CXCR7 receptor [1] and 500 to 2500 nM on CXCR7 receptor [2].

Consider `O=C(N[C@H]1CCN(c2nccn3ccnc23)C1)c1ccn(C2CCOCC2)n1` [Compound 1.086], for which the IC50 on CXCR7 receptor [1] and on CXCR7 receptor [2] was 500 to 2500 nM throughout.

As for `Cc1ccn2ccnc(N3CC[C@H](NC(=O)c4ncc(-c5ccccc5)cn4)C3)c12` [Compound 1.110], the results for the IC50 at CXCR7 receptor [1] and on CXCR7 receptor [2] were at most 500 nM and 500 to 2500 nM, respectively.

`Cc1ccn2ccnc(N3CC[C@H](NC(=O)c4coc(-c5ccccc5)n4)C3)c12` [Compound 1.107]: the values for the IC50 at CXCR7 receptor [1] and at CXCR7 receptor [2] were at most 500 nM and 500 to 2500 nM, respectively.

With `N#CCc1ccccc1-n1ccc(C(=O)N[C@H]2CCN(c3nccn4cccc34)C2)n1` [Compound 1.115], the 50% inhibitory concentration (IC50) on CXCR7 receptor [1] and on CXCR7 receptor [2] was at most 500 nM each time.

Regarding `O=C(N[C@H]1CCN(c2nccn3cccc23)C1)c1coc(-c2ccccc2)n1` [Compound 1.125], the IC50 on CXCR7 receptor [1] and at CXCR7 receptor [2] was at most 500 nM throughout.

For the compound `O=C(N[C@H]1CCN(c2nccn3cccc23)C1)c1ccn(C2CCOCC2)n1` [Compound 1.088], the IC50 at CXCR7 receptor [1] and on CXCR7 receptor [2] was at most 500 nM throughout.

Regarding `O=C(N[C@H]1CCN(c2nccn3cnnc23)C1)c1coc(-c2ccc(F)cc2)n1` [Compound 1.122], the IC50 at CXCR7 receptor [1] and on CXCR7 receptor [2] was at most 500 nM in each case.

As for `Cc1ccccc1-c1nc(C(=O)N[C@H]2CCN(c3nccn4cccc34)C2)co1` [Compound 1.080], the IC50 is at most 500 nM on CXCR7 receptor [1] and 500 to 2500 nM at CXCR7 receptor [2].

For the compound `Cc1ccn2ccnc(N3CC[C@H](NC(=O)c4noc(-c5ccccc5)n4)C3)c12` [Compound 1.111], the IC50 on CXCR7 receptor [1] is at most 500 nM; at CXCR7 receptor [2], 500 to 2500 nM.

For `O=C(N[C@H]1CCN(c2nccn3cccc23)C1)c1ncc(-c2ccccc2)cn1` [Compound 1.093], the IC50 on CXCR7 receptor [1] and at CXCR7 receptor [2] was at most 500 nM each time.

`Cc1ccn2ccnc(N3CC[C@H](NC(=O)c4coc(-c5ccc(F)cc5)n4)C3)c12` [Compound 1.116]: the IC50 at CXCR7 receptor [1] is at most 500 nM; at CXCR7 receptor [2] it was 500 to 2500 nM.

Turning to `Cc1ccccc1-n1ccc(C(=O)N[C@H]2CCN(c3nccn4cccc34)C2)n1` [Compound 1.123], the IC50 on CXCR7 receptor [1] and on CXCR7 receptor [2] was at most 500 nM throughout.

Consider `O=C(N[C@H]1CCN(c2nccn3ccnc23)C1)c1ccn(-c2ccc(Cl)cc2)n1` [Compound 1.102], for which the IC50 on CXCR7 receptor [1] and at CXCR7 receptor [2] was at most 500 nM throughout.
